Assay results as given in US9657312B2, “Replication competent pseudo-type retrovirus vector system” (Inje University Industry-Academic Cooperation Foundation, priority 2012, dated 2017).

Tested on: U-87 MG cells
Test: MTT assay of cytotoxicity of vector-infected cells treated with GCV
Format: cell-based, human
Conditions: normal (non-infected) cells
Method: In order to measure a degree of cytotoxicity of the cells infected with the spRCR-TK vector when treated with GCV in vitro, MTT assay was carried out. First, a vector carrying a therapeutic gene, TK, instead of a GFP gene of the Env vector was prepared. Then, the 293T cells were transfected with the prepared vector and a Gag-pol vector, so as to manufacture the spRCR-TK vector. Then, the U-87 MG cells were infected with the virus of the spRCR-TK vector, and maintained for 14 days. Afterwards, the infected cells and non-infected cells were inoculated into a 96-well plate. […] The GCV treatment period was divided as the 1st, 2nd, 3rd, and 4th day, to perform MTT assay.

Nc1nc(O)c2ncn(COC(CO)CO)c2n1 [GCV, Ganciclovir]
GCV concentration from which normal cells show cytotoxicity: ≥ 70 µg/mL
